What was measured:
Test in all cases: Caliper, Mobility shift assay off-chip
CAMK2G (human) = CAMK2G (human) (UniProt Q13555)
CDK7 CCNH MNAT1 (human) = CDK7 CCNH MNAT1 (human) (UniProt P50613+P51948+P51946)
CDK9 CCNT1 (human) = CDK9 CCNT1 (human) (UniProt O60563+P50750)
CHEK2 (human) = CHEK2 (human) (UniProt O96017)
[1] = tested on: CHEK2 (human), O96017 [I157T]
CSNK1G3 (human) = CSNK1G3 (human) (UniProt Q9Y6M4)
DAPK3 (human) = DAPK3 (human) (UniProt O43293)
[2] = tested on: EGFR (human), P00533 [L858R]
[3] = tested on: EGFR (human), P00533 [T790M]
EPHA1 (human) = EPHA1 (human) (UniProt P21709)
EPHA5 (human) = EPHA5 (human) (UniProt P54756)
EPHB1 (human) = EPHB1 (human) (UniProt P54762)
ERBB4 (human) = ERBB4 (human) (UniProt Q15303)
FGFR2 (human) = FGFR2 (human) (UniProt P21802)
FLT4 (human) = FLT4 (human) (UniProt P35916)
FYN (human) = FYN (human) (UniProt P06241)
HIPK3 (human) = HIPK3 (human) (UniProt Q9H422)
ITK (human) = ITK (human) (UniProt Q08881)
JAK3 JH1 JH2 (human) = JAK3 JH1 JH2 (human) (UniProt P52333)
LIMK1 (human) = LIMK1 (human) (UniProt P53667)
MAP2K6 (human) = MAP2K6 (human) (UniProt P52564)
MAP2K7 (human) = MAP2K7 (human) (UniProt O14733)
MAPK10 (human) = MAPK10 (human) (UniProt P53779)
MARK1 (human) = MARK1 (human) (UniProt Q9P0L2)
MELK (human) = MELK (human) (UniProt Q14680)
MKNK2 (human) = MKNK2 (human) (UniProt Q9HBH9)
MUSK (human) = MUSK (human) (UniProt O15146)
NEK3 (human) = NEK3 (human) (UniProt P51956)
NEK7 (human) = NEK7 (human) (UniProt Q8TDX7)
PAK2 (human) = PAK2 (human) (UniProt Q13177)
PAK6 (human) = PAK6 (human) (UniProt Q9NQU5)
PAK7 (human) = PAK7 (human) (UniProt Q9P286)
PRKCE (human) = PRKCE (human) (UniProt Q02156)
PTK2 (human) = PTK2 (human) (UniProt Q05397)
ROCK2 (human) = ROCK2 (human) (UniProt O75116)
SGK3 (human) = SGK3 (human) (UniProt Q96BR1)
STK11 (human) = STK11 (human) (UniProt Q15831)
STK24 (human) = STK24 (human) (UniProt Q9Y6E0)
TSSK1B (human) = TSSK1B (human) (UniProt Q9BXA7)
WNK2 (human) = WNK2 (human) (UniProt Q9Y3S1)
WNK3 (human) = WNK3 (human) (UniProt Q9BYP7)

Sequence of MARK1 (human) (Q9P0L2 whole entry, looked up): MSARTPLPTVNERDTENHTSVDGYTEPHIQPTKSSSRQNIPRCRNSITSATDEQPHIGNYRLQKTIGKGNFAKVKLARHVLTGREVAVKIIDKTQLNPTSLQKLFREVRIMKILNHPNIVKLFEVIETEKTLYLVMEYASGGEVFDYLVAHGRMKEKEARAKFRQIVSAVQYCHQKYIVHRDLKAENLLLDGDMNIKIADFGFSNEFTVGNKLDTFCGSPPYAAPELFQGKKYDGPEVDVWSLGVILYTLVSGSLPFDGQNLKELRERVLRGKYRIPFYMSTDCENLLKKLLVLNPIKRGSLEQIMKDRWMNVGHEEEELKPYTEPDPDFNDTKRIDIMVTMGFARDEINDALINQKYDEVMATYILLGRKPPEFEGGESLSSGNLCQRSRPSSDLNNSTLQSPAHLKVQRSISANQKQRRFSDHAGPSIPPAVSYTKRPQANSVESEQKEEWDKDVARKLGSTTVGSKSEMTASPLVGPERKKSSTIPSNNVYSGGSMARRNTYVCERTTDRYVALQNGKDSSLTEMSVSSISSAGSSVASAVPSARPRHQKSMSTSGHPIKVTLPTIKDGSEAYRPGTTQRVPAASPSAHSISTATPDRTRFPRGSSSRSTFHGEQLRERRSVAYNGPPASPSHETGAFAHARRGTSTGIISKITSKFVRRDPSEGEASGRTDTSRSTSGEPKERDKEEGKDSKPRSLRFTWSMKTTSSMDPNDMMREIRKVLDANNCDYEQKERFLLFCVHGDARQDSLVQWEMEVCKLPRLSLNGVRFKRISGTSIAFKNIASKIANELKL
Sequence of EPHA1 (human) (P21709 whole entry, looked up): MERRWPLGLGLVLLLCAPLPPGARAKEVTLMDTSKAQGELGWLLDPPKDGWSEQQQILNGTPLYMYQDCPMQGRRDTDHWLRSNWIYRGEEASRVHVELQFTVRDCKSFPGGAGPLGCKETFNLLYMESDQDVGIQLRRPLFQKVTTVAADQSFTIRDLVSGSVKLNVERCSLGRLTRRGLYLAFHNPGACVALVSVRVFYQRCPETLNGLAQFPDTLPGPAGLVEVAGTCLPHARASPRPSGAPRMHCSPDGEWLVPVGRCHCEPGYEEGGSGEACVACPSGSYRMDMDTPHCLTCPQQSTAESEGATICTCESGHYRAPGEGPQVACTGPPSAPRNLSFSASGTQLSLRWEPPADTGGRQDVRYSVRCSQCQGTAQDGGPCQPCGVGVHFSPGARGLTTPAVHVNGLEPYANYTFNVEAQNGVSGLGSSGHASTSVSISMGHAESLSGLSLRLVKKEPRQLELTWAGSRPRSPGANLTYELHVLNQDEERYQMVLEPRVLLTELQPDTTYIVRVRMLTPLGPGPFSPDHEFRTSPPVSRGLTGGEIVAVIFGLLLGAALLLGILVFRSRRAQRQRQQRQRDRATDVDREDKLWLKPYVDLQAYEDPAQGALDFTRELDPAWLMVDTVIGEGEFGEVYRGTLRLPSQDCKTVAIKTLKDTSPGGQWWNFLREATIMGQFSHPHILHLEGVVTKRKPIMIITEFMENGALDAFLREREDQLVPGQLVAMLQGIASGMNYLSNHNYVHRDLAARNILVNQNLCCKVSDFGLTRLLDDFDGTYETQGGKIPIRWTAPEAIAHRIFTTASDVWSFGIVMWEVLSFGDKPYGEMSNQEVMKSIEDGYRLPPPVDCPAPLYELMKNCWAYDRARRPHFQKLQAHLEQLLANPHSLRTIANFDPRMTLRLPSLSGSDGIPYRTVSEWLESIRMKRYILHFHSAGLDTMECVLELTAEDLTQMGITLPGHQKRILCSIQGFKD
Sequence of CDK9 CCNT1 (human) (O60563 whole entry, looked up): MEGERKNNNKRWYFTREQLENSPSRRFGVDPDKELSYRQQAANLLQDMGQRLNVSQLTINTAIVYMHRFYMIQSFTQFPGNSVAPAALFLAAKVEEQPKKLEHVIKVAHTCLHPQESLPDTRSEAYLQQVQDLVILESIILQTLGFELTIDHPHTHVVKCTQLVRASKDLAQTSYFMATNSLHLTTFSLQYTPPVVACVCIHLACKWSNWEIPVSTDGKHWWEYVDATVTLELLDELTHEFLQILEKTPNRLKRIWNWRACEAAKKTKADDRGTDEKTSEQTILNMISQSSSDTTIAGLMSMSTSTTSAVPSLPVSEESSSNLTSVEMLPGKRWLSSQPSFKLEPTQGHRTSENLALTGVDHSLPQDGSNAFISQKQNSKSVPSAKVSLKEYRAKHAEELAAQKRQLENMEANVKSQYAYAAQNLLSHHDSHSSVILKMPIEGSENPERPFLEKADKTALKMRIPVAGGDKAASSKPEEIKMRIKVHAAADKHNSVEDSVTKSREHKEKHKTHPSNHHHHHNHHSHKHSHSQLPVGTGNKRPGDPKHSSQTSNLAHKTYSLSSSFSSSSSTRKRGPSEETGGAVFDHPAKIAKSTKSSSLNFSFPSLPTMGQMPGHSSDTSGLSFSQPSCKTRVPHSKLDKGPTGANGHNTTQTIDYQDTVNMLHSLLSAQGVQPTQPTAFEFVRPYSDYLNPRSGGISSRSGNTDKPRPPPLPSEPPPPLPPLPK
Sequence of CDK9 CCNT1 (human) (P50750 whole entry, looked up): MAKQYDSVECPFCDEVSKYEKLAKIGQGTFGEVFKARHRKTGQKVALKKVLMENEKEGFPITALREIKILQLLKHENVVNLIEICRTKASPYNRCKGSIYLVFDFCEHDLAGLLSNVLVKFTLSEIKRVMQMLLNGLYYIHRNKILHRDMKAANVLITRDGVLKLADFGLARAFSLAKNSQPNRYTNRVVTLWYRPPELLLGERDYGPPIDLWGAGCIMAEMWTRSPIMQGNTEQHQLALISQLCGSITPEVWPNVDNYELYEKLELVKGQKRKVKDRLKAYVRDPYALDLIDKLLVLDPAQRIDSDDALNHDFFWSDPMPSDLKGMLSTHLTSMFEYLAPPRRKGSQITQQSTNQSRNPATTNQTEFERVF
Sequence of MAP2K6 (human) (P52564 whole entry, looked up): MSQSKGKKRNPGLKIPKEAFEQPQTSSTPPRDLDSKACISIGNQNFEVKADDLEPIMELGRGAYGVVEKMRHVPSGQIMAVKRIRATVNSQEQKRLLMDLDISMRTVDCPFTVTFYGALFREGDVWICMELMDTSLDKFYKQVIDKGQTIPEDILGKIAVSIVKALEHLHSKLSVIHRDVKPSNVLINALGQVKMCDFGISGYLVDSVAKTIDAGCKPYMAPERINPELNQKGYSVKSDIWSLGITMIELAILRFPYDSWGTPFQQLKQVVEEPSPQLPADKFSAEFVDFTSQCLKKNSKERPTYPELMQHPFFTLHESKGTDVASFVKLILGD
Sequence of CHEK2 (human) (O96017 whole entry, looked up): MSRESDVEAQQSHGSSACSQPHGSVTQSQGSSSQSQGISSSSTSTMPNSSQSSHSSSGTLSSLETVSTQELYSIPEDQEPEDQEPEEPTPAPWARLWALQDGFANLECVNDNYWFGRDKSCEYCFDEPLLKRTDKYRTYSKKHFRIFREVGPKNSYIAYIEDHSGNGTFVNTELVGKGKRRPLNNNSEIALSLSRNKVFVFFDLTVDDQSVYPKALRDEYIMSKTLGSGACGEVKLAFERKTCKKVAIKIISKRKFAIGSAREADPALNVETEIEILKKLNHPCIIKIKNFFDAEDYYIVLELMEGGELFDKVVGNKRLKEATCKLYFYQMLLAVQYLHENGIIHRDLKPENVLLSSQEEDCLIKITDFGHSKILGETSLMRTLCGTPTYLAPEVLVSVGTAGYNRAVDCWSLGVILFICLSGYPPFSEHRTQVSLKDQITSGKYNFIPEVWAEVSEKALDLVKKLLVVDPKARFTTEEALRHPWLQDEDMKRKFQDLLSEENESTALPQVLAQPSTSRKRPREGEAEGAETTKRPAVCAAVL
Sequence of SGK3 (human) (Q96BR1 whole entry, looked up): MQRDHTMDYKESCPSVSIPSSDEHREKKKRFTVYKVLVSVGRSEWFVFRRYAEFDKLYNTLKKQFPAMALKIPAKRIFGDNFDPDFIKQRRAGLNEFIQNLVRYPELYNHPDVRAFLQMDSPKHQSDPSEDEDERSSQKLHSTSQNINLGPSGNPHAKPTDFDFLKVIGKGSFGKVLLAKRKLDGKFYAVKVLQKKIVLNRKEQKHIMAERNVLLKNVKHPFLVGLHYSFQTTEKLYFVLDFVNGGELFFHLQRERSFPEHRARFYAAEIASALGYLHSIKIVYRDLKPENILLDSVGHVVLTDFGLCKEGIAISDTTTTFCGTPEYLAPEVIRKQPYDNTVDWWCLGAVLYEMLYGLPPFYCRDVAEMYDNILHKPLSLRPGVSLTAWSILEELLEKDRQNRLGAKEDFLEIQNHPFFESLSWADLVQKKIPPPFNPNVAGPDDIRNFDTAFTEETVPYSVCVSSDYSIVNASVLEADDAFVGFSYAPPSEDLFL
Sequence of CHEK2 (human), O96017 [I157T] (O96017 whole entry I157T, looked up): as the sequence (O96017 whole entry, looked up) above, with I157T counted along it
Sequence of STK11 (human) (Q15831 whole entry, looked up): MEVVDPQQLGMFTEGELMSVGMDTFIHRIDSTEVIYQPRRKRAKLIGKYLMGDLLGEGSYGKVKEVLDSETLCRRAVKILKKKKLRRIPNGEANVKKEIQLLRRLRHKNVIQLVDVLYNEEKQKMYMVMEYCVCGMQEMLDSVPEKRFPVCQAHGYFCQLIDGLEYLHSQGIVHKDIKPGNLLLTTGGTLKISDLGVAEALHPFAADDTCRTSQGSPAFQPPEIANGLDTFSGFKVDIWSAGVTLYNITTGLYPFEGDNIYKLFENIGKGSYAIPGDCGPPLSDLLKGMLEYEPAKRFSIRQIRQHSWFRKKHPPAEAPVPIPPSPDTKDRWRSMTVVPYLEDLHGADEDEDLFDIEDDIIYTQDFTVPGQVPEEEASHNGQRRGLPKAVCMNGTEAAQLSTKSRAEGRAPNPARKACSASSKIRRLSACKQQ
Sequence of NEK7 (human) (Q8TDX7 whole entry, looked up): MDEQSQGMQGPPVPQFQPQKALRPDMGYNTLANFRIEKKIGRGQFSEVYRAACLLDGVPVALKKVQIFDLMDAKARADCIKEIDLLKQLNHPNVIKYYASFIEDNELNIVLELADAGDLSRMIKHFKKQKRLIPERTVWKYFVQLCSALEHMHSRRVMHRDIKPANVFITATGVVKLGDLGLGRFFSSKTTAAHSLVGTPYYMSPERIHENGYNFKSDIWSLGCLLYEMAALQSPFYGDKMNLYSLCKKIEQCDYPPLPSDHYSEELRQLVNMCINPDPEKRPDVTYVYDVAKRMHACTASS

## O=C(NCCCNc1nc(Nc2cccc(NC(=O)N3CCCC3)c2)ncc1I)c1cccs1
CAMK2G (human); compound 1.0 µM
  residual activity: 9%
CDK7 CCNH MNAT1 (human); compound 1.0 µM
  residual activity: 75%
CDK9 CCNT1 (human); compound 1.0 µM
  residual activity: 70%
CHEK2 (human); compound 1.0 µM
  residual activity: 60%
[1]; compound 1.0 µM
  residual activity: 71%
CSNK1G3 (human); compound 1.0 µM
  residual activity: 87%
DAPK3 (human); compound 1.0 µM
  residual activity: 102%
[2]; compound 1.0 µM
  residual activity: 102%
[3]; compound 1.0 µM
  residual activity: 82%
EPHA1 (human); compound 1.0 µM
  residual activity: 82%
EPHA5 (human); compound 1.0 µM
  residual activity: 89%
EPHB1 (human); compound 1.0 µM
  residual activity: 101%
ERBB4 (human); compound 1.0 µM
  residual activity: 127%
FGFR2 (human); compound 1.0 µM
  residual activity: 86%
FLT4 (human); compound 1.0 µM
  residual activity: 13%
FYN (human); compound 1.0 µM
  residual activity: 98%
HIPK3 (human); compound 1.0 µM
  residual activity: 107%
ITK (human); compound 1.0 µM
  residual activity: 85%
JAK3 JH1 JH2 (human); compound 1.0 µM
  residual activity: 2%
LIMK1 (human); compound 1.0 µM
  residual activity: 34%
MAP2K6 (human); compound 1.0 µM
  residual activity: 108%
MAP2K7 (human); compound 1.0 µM
  residual activity: 106%
MAPK10 (human); compound 1.0 µM
  residual activity: 68%
MARK1 (human); compound 1.0 µM
  residual activity: 2%
MELK (human); compound 1.0 µM
  residual activity: 53%
MKNK2 (human); compound 1.0 µM
  residual activity: 121%
MUSK (human); compound 1.0 µM
  residual activity: 89%
NEK3 (human); compound 1.0 µM
  residual activity: 99%
NEK7 (human); compound 1.0 µM
  residual activity: 109%
PAK2 (human); compound 1.0 µM
  residual activity: 111%
PAK6 (human); compound 1.0 µM
  residual activity: 145%
PAK7 (human); compound 1.0 µM
  residual activity: 115%
PRKCE (human); compound 1.0 µM
  residual activity: 84%
PTK2 (human); compound 1.0 µM
  residual activity: 80%
ROCK2 (human); compound 1.0 µM
  residual activity: 59%
SGK3 (human); compound 1.0 µM
  residual activity: 81%
STK11 (human); compound 1.0 µM
  residual activity: 108%
STK24 (human); compound 1.0 µM
  residual activity: 195%
TSSK1B (human); compound 1.0 µM
  residual activity: 99%
WNK2 (human); compound 1.0 µM
  residual activity: 95%
WNK3 (human); compound 1.0 µM
  residual activity: 108%

## COc1ccc(C#Cc2ccc3ncc4ncn(-c5ccc(CCN)cc5)c4c3c2)cc1
CAMK2G (human); compound 10.0 µM
  residual activity: 58%
CDK7 CCNH MNAT1 (human); compound 10.0 µM
  residual activity: 73%
CDK9 CCNT1 (human); compound 10.0 µM
  residual activity: 126%
CHEK2 (human); compound 10.0 µM
  residual activity: 5%
[1]; compound 10.0 µM
  residual activity: 6%
CSNK1G3 (human); compound 10.0 µM
  residual activity: 2%
DAPK3 (human); compound 10.0 µM
  residual activity: 34%
[2]; compound 10.0 µM
  residual activity: 50%
[3]; compound 10.0 µM
  residual activity: 65%
EPHA1 (human); compound 10.0 µM
  residual activity: 80%
EPHA5 (human); compound 10.0 µM
  residual activity: 90%
EPHB1 (human); compound 10.0 µM
  residual activity: 110%
ERBB4 (human); compound 10.0 µM
  residual activity: 116%
FGFR2 (human); compound 10.0 µM
  residual activity: 65%
FLT4 (human); compound 10.0 µM
  residual activity: 1%
FYN (human); compound 10.0 µM
  residual activity: 114%
HIPK3 (human); compound 10.0 µM
  residual activity: 90%
ITK (human); compound 10.0 µM
  residual activity: 78%
JAK3 JH1 JH2 (human); compound 10.0 µM
  residual activity: 55%
LIMK1 (human); compound 10.0 µM
  residual activity: 38%
MAP2K6 (human); compound 10.0 µM
  residual activity: 33%
MAP2K7 (human); compound 10.0 µM
  residual activity: 30%
MAPK10 (human); compound 10.0 µM
  residual activity: 12%
MARK1 (human); compound 10.0 µM
  residual activity: 86%
MELK (human); compound 10.0 µM
  residual activity: 13%
MKNK2 (human); compound 10.0 µM
  residual activity: 120%
MUSK (human); compound 10.0 µM
  residual activity: 99%
NEK3 (human); compound 10.0 µM
  residual activity: 88%
NEK7 (human); compound 10.0 µM
  residual activity: 121%
PAK2 (human); compound 10.0 µM
  residual activity: 98%
PAK6 (human); compound 10.0 µM
  residual activity: 112%
PAK7 (human); compound 10.0 µM
  residual activity: 121%
PRKCE (human); compound 10.0 µM
  residual activity: 81%
PTK2 (human); compound 10.0 µM
  residual activity: 76%
ROCK2 (human); compound 10.0 µM
  residual activity: 67%
SGK3 (human); compound 10.0 µM
  residual activity: 12%
STK11 (human); compound 10.0 µM
  residual activity: 104%
STK24 (human); compound 10.0 µM
  residual activity: 106%
TSSK1B (human); compound 10.0 µM
  residual activity: 99%
WNK2 (human); compound 10.0 µM
  residual activity: 65%
WNK3 (human); compound 10.0 µM
  residual activity: 104%

Source: the kinase profiling compilation of Christmann-Franck et al. (2016)
